{"source": "patent US5446029A", "about": "“Anti-retroviral activity of 2',3'-dideoxy-3'-fluoronucleosides” (Medivir AB, priority 1986, dated 1995)", "key": {"[1]": {"target": "DNA polymerase of hepatitis B virus (HBV) (Hepatitis B virus genotype D subtype ayw, UniProt P03156)", "sequence (P03156 whole entry)": "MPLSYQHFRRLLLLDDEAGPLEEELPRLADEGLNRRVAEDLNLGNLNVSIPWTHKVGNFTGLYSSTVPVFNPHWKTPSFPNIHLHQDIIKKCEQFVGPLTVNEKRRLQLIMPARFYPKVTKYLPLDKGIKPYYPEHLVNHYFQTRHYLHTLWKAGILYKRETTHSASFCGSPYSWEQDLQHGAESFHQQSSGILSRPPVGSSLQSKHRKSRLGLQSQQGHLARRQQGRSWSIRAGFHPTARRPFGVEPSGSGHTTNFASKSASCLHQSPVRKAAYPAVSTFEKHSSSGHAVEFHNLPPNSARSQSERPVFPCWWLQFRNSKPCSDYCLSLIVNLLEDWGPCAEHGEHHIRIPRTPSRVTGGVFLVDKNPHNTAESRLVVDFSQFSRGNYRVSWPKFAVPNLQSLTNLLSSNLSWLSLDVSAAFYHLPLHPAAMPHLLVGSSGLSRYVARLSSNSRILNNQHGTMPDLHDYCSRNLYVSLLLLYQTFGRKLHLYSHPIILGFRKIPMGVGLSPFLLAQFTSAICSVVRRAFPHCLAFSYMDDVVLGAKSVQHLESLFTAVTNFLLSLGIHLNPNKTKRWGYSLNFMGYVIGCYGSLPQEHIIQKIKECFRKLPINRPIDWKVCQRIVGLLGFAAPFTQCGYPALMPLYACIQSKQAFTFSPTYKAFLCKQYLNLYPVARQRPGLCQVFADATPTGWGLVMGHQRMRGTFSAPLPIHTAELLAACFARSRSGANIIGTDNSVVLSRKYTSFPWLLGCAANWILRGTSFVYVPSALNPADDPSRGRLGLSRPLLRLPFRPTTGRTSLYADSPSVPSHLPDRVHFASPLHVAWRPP", "experiment": "Inhibition of hepatitis B virus (HBV) DNA polymerase, cell free assay (Test I)", "format": "biochemical", "description": "The HBV associated DNA polymerase activity can be measured in vitro (Kaplan et al., J. Virol., 12,995-1005, 1973). A slight modification of this method has been used to test the substance for inhibition of this DNA polymerase activity. (Nordenfelt E., (Oberg, B., Helgstrand E. and Miller E. Acta path., Microbiol. Scand. Sect B, 88:169-175, 1980). With this assay the 3'-deoxy-3'-fluorothymidine-5'-triphosphate has been tested, instead of the prodrug 3'-deoxy- 3'-fluorothymidine, to evaluate its potential against hepatitis B virus DNA polymerase.\n3'-deoxy-3'-fluorothymidine-5'-triphosphate was added to the final concentrations of 0.01 μM, 0.05 μM, 0.1 μM, 0.5 μM and 1.0 μM in the reaction mixture. The inhibition is calculated after 3 hours incubation at 37° C. and based on cpm compared to control with added water."}, "[2]": {"target": "T1, reverse transcriptase of HIV (HTLV-III/LAV) (Human immunodeficiency virus type 1 group M subtype B, UniProt P04585)", "T1 construct": "reverse transcriptase of HIV (HTLV-III/LAV) in cell free assay", "experiment": "Inhibition of HIV (HTLV-III/LAV) reverse transcriptase, cell free assay (Test II)", "format": "biochemical", "experimental": "The assay was performed as described by Vrang et Oberg, Antimicrob. Agents Chemother. 29,867-872 (1986)."}, "[3]": {"test_system": "HIV (HTLV-III/LAV) in H9 cells", "quoted_text": "MATERIAL AND METHODS; HIV INFECTION OF H9 CELLS\nThe cells were then pelleted and dispersed in 2.5 ml phosphate buffered saline (PBS) including 2 μg/ml Polybrene. After incubation for 30 min the cells were pelleted and infected with HIV. After an adsorption period of 1 hour the cells were pelleted and washed once with 2.5 ml PBS. […] Samples for reverse transcriptase activity tests were taken as indicated.\n1.3 ml samples from the supernatant of each culture were centrifuged at 18 000 rpm in a 55-34 rotor for 1.5 hours and the virus pellet resuspended in 100 μl buffer containing 50 mM Tris-HC1, pH 7.5; 35 mM KC1; 4 mM DTT; 1 mM EDTA; 1.3 % Triton X-100.50 μl samples were taken to the reverse transcriptase activity tests and analyzed in a 100 μl reaction mixture containing 75 mM Tris-HC1, pH 8.0; 60 mM KC1; 6.2 mM MgC12 ; 6 mM DTT; 0.5 mM EDTA; 0.65 % Triton X-100; 100 μg/ml BSA; 25 μCi/ml ^3 H-dTTP (spec activity 80 Ci/mmol); 2.5 μg/ml (dT)12-18 ; and 2.0 μg/ml (rA)n. Incubation was for 1 hour at 37° C. and the TCA-insoluble product precipitated onto Whatman GF/A filter papers, washed and dried, and counted in a liquid scintillation counter."}, "DNA synthesis": {"test_system": "DNA synthesis", "conditions": "Journal f. prakt. Chemie, Vol. 315, 895-900 (1973); cited from earlier work"}}, "note": "Like-named read-outs stand apart in the source and are kept apart here."}
{"compound": "Cc1cn([C@H]2C[C@H](F)[C@@H](COP(=O)(O)OP(=O)(O)OP(=O)(O)O)O2)c(=O)[nH]c1=O", "note": "[3'-deoxy-3'-fluorothymidine-5'-triphosphate]", "values": [{"measurement": "inhibition at 1 µM", "setting": "[1]; read-out: % inhibition of HBV DNA polymerase activity", "value": 88, "unit": "%"}, {"measurement": "inhibition at 0.01 µM", "setting": "[2]; 0.01 μM", "value": 12, "unit": "%"}, {"measurement": "inhibition at 0.05 µM", "setting": "[2]; 0.05 μM", "value": 27, "unit": "%"}, {"measurement": "inhibition at 0.1 µM", "setting": "[2]; 0.1 μM", "value": 38, "unit": "%"}]}
{"compound": "Cc1cn([C@H]2C[C@H](F)[C@@H](CO)O2)c(=O)[nH]c1=O", "values": [{"measurement": "apparent ID50-value", "setting": "[1]; from Table I, tested as 5'-triphosphate, 3 hours at 37° C.", "value": 0.16, "unit": "µM"}, {"measurement": "ID50-value with regard to the activity of HIV reverse transcriptase", "setting": "[2]; by extrapolation from Table II, tested as 5'-triphosphate", "value": 0.2, "unit": "µM"}, {"measurement": "Reverse transcriptase activity", "setting": "[3]; 0.01 μM, day 4 post-infection, untreated 0.9", "value": 0.5, "unit": "cpm × 10^-3"}, {"measurement": "Reverse transcriptase activity", "setting": "[3]; 0.01 μM, day 8 post-infection, untreated 19", "value": 1.3, "unit": "cpm × 10^-3"}, {"measurement": "Reverse transcriptase activity", "setting": "[3]; 0.01 μM, day 11 post-infection, untreated 17", "value": 1.9, "unit": "cpm × 10^-3"}, {"measurement": "Reverse transcriptase activity", "setting": "[3]; 0.01 μM, day 15 post-infection, untreated 11", "value": 2.7, "unit": "cpm × 10^-3"}, {"measurement": "Reverse transcriptase activity", "setting": "[3]; 0.01 μM, day 18 post-infection, untreated 27", "value": 28, "unit": "cpm × 10^-3"}, {"measurement": "Reverse transcriptase activity", "setting": "[3]; 0.01 μM, day 22 post-infection, untreated 46", "value": 52, "unit": "cpm × 10^-3"}, {"measurement": "Reverse transcriptase activity", "setting": "[3]; 0.01 μM, day 29 post-infection, untreated 16", "value": 21, "unit": "cpm × 10^-3"}, {"measurement": "effect on reverse transcriptase activity of HIV (in words)", "setting": "[3]; 0.01 μM, up to 11 days", "value": "enzyme activity was not detected"}, {"measurement": "Reverse transcriptase activity", "setting": "[3]; 0.05 μM, day 4 post-infection, untreated 0.9", "value": 0.3, "unit": "cpm × 10^-3"}, {"measurement": "Reverse transcriptase activity", "setting": "[3]; 0.05 μM, day 8 post-infection, untreated 19", "value": 0.3, "unit": "cpm × 10^-3"}, {"measurement": "Reverse transcriptase activity", "setting": "[3]; 0.05 μM, day 11 post-infection, untreated 17", "value": 0.4, "unit": "cpm × 10^-3"}, {"measurement": "Reverse transcriptase activity", "setting": "[3]; 0.05 μM, day 15 post-infection, untreated 11", "value": 0.6, "unit": "cpm × 10^-3"}, {"measurement": "Reverse transcriptase activity", "setting": "[3]; 0.05 μM, day 18 post-infection, untreated 27", "value": 0.5, "unit": "cpm × 10^-3"}, {"measurement": "Reverse transcriptase activity", "setting": "[3]; 0.05 μM, day 22 post-infection, untreated 46", "value": 1.6, "unit": "cpm × 10^-3"}, {"measurement": "Reverse transcriptase activity", "setting": "[3]; 0.05 μM, day 29 post-infection, untreated 16", "value": 3.1, "unit": "cpm × 10^-3"}, {"measurement": "effect on reverse transcriptase activity of HIV (in words)", "setting": "[3]; 0.05 μM, up to 22 days", "value": "no significant enzyme activity was detected"}, {"measurement": "effect on reverse transcriptase activity of HIV (in words)", "setting": "[3]; 0.1 μM and higher concentrations, during at least 29 days", "value": "completely prevents the enzyme activity"}, {"measurement": "Reverse transcriptase activity", "setting": "[3]; 0.1 μM, day 4 post-infection, untreated 0.9", "value": 0.2, "unit": "cpm × 10^-3"}, {"measurement": "Reverse transcriptase activity", "setting": "[3]; 0.1 μM, day 8 post-infection, untreated 19", "value": 0.2, "unit": "cpm × 10^-3"}, {"measurement": "Reverse transcriptase activity", "setting": "[3]; 0.1 μM, day 11 post-infection, untreated 17", "value": 0.5, "unit": "cpm × 10^-3"}, {"measurement": "Reverse transcriptase activity", "setting": "[3]; 0.1 μM, day 15 post-infection, untreated 11", "value": 0.4, "unit": "cpm × 10^-3"}, {"measurement": "Reverse transcriptase activity", "setting": "[3]; 0.1 μM, day 18 post-infection, untreated 27", "value": 0.4, "unit": "cpm × 10^-3"}, {"measurement": "Reverse transcriptase activity", "setting": "[3]; 0.1 μM, day 22 post-infection, untreated 46", "value": 0.2, "unit": "cpm × 10^-3"}, {"measurement": "Reverse transcriptase activity", "setting": "[3]; 0.1 μM, day 29 post-infection, untreated 16", "value": 0.2, "unit": "cpm × 10^-3"}, {"measurement": "Reverse transcriptase activity", "setting": "[3]; 0.5 μM, day 4 post-infection, untreated 0.9", "value": 0.3, "unit": "cpm × 10^-3"}, {"measurement": "Reverse transcriptase activity", "setting": "[3]; 0.5 μM, day 8 post-infection, untreated 19", "value": 0.3, "unit": "cpm × 10^-3"}, {"measurement": "Reverse transcriptase activity", "setting": "[3]; 0.5 μM, day 11 post-infection, untreated 17", "value": 0.5, "unit": "cpm × 10^-3"}, {"measurement": "Reverse transcriptase activity", "setting": "[3]; 0.5 μM, day 15 post-infection, untreated 11", "value": 0.3, "unit": "cpm × 10^-3"}, {"measurement": "Reverse transcriptase activity", "setting": "[3]; 0.5 μM, day 18 post-infection, untreated 27", "value": 0.6, "unit": "cpm × 10^-3"}, {"measurement": "Reverse transcriptase activity", "setting": "[3]; 0.5 μM, day 22 post-infection, untreated 46", "value": 0.1, "unit": "cpm × 10^-3"}, {"measurement": "Reverse transcriptase activity", "setting": "[3]; 0.5 μM, day 29 post-infection, untreated 16", "value": 0.2, "unit": "cpm × 10^-3"}, {"measurement": "Reverse transcriptase activity", "setting": "[3]; 1.0 μM, day 4 post-infection, untreated 0.9", "value": 0.3, "unit": "cpm × 10^-3"}, {"measurement": "Reverse transcriptase activity", "setting": "[3]; 1.0 μM, day 8 post-infection, untreated 19", "value": 0.2, "unit": "cpm × 10^-3"}, {"measurement": "Reverse transcriptase activity", "setting": "[3]; 1.0 μM, day 11 post-infection, untreated 17", "value": 0.5, "unit": "cpm × 10^-3"}, {"measurement": "Reverse transcriptase activity", "setting": "[3]; 1.0 μM, day 15 post-infection, untreated 11", "value": 0.4, "unit": "cpm × 10^-3"}, {"measurement": "Reverse transcriptase activity", "setting": "[3]; 1.0 μM, day 18 post-infection, untreated 27", "value": 0.5, "unit": "cpm × 10^-3"}, {"measurement": "Reverse transcriptase activity", "setting": "[3]; 1.0 μM, day 22 post-infection, untreated 46", "value": 0.1, "unit": "cpm × 10^-3"}, {"measurement": "Reverse transcriptase activity", "setting": "[3]; 1.0 μM, day 29 post-infection, untreated 16", "value": 0.2, "unit": "cpm × 10^-3"}, {"measurement": "cytostatic and virustatic activity", "setting": "DNA synthesis", "value": "cytostatic and virustatic activity as selective inhibitor of DNA synthesis"}]}
